Laboratory results published in patent US9301961B2, “Autoimmune and inflammatory disorder therapy” (Katholieke Universiteit Leuven, K.U. Leuven R&D, priority 2011, dated 2016).

Assays:
LOK = molecular target: T1, LOK (Homo sapiens, UniProt O94804); assay: Kinase-tagged phage competition binding assay (qPCR), 382-kinase library
T1 construct: made in house; host or cells: E. coli BL21-derived host (T7 phage) or HEK-293

RIOK2 = molecular target: T2, RIOK2 (Homo sapiens, UniProt Q9BVS4); assay: as above
T2 construct: made in house; host or cells: E. coli BL21-derived host (T7 phage) or HEK-293

TESK1 = molecular target: T3, TESK1 (Homo sapiens, UniProt Q15569); assay: as above
T3 construct: made in house; host or cells: E. coli BL21-derived host (T7 phage) or HEK-293

PI4KA (PI4K alpha) = molecular target: T4, PI4KA (PI4K alpha) (Homo sapiens, UniProt P42356); assay: Commercial kinase activity assay (Invitrogen, ADP TR-FRET); assay type: biochemical; conditions: 10 μM test compound
T4 construct: purchased Invitrogen

YSK4 = molecular target: T5, YSK4 (Homo sapiens, UniProt Q56UN5); assay: Kinase-tagged phage competition binding assay (qPCR), 382-kinase library
T5 construct: made in house; host or cells: E. coli BL21-derived host (T7 phage) or HEK-293
T5 sequence (Q56UN5 1-1328): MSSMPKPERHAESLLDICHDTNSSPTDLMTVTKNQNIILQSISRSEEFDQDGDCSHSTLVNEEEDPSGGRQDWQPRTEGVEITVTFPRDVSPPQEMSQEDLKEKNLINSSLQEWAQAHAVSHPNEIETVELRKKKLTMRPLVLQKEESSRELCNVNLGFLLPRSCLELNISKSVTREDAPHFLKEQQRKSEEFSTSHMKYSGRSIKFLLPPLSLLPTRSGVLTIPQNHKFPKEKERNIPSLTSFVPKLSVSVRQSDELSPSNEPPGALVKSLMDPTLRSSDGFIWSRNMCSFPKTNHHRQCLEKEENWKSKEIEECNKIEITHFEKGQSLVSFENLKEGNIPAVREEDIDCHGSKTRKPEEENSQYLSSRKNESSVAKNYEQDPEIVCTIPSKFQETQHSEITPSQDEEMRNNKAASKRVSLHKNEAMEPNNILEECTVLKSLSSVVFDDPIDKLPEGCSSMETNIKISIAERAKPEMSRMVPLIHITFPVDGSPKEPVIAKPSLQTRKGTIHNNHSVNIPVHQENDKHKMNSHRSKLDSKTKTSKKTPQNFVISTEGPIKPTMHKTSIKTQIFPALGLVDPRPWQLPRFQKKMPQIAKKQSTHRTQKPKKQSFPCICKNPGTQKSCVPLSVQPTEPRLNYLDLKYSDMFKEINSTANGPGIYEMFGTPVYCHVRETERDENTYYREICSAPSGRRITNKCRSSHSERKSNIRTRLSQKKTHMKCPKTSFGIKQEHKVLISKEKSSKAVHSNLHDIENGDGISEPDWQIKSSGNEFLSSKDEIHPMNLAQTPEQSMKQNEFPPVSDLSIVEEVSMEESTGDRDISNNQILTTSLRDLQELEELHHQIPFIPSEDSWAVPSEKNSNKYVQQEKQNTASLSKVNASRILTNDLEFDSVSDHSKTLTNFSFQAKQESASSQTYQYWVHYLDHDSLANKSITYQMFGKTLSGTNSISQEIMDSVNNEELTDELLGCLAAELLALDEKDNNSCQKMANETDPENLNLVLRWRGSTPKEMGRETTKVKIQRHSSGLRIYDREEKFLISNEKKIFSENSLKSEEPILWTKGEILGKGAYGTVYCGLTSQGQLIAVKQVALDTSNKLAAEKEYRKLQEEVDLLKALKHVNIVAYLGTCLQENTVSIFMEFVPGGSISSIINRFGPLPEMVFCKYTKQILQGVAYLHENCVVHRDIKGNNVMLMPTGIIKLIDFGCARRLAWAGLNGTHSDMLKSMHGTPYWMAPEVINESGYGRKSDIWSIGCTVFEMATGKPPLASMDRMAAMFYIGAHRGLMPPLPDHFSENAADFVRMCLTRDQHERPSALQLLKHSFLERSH

[1] = 10 μM compound, read-out: % Inhibition of substrate binding
[2] = stated for the 8 kinases of Table 1

T3 sequence (Q15569 whole entry): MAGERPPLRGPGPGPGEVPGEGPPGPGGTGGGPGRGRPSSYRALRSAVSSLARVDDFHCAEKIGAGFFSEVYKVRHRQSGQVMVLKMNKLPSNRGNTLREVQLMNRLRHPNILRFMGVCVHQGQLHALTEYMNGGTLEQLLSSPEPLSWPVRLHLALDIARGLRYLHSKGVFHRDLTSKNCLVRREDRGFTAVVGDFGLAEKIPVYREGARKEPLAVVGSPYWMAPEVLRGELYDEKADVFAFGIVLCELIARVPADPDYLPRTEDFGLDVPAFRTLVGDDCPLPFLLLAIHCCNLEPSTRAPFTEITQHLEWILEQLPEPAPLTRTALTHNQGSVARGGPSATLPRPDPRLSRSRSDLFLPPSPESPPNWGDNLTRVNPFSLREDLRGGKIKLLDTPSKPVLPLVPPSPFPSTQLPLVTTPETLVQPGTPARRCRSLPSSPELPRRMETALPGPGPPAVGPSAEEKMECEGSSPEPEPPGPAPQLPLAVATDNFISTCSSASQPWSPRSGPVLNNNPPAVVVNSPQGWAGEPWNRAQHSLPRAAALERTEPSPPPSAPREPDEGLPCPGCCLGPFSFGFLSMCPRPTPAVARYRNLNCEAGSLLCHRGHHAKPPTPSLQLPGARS
T2 sequence (Q9BVS4 whole entry): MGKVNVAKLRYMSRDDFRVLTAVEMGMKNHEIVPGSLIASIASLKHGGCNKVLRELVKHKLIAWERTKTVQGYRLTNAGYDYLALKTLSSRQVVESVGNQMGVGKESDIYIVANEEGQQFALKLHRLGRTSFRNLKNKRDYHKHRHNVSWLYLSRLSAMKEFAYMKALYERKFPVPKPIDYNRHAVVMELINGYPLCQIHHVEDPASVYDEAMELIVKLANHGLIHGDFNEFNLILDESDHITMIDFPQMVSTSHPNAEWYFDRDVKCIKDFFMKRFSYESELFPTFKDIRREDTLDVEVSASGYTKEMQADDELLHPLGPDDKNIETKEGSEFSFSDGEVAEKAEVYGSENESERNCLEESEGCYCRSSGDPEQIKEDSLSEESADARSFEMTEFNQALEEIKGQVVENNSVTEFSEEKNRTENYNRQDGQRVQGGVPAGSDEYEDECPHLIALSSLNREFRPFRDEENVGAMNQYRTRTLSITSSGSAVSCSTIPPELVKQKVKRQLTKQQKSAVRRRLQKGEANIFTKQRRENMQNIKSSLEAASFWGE
T1 sequence (O94804 whole entry): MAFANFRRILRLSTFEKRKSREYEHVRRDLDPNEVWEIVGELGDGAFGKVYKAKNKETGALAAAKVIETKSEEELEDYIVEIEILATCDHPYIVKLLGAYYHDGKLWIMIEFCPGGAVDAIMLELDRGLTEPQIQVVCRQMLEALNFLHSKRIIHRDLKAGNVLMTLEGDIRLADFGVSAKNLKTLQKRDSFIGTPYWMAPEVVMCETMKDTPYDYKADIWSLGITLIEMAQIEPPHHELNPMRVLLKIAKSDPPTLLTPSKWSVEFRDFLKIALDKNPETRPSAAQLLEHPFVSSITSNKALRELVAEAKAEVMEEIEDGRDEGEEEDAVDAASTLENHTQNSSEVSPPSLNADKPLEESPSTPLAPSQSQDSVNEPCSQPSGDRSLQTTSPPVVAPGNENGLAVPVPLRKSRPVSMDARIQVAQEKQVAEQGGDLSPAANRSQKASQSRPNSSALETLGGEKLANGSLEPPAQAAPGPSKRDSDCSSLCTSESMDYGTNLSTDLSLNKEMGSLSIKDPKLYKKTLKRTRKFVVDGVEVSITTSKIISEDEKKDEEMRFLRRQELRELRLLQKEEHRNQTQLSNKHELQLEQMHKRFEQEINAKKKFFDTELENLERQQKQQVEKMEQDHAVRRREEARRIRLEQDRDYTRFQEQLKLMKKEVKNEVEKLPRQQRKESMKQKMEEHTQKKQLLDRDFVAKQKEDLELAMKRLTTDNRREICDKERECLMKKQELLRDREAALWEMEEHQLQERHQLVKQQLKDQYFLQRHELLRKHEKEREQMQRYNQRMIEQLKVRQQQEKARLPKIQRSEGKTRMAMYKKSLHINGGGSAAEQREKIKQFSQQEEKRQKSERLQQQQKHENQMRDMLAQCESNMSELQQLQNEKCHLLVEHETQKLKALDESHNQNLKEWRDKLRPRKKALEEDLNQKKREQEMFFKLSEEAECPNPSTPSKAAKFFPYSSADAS
T4 sequence (P42356 whole entry): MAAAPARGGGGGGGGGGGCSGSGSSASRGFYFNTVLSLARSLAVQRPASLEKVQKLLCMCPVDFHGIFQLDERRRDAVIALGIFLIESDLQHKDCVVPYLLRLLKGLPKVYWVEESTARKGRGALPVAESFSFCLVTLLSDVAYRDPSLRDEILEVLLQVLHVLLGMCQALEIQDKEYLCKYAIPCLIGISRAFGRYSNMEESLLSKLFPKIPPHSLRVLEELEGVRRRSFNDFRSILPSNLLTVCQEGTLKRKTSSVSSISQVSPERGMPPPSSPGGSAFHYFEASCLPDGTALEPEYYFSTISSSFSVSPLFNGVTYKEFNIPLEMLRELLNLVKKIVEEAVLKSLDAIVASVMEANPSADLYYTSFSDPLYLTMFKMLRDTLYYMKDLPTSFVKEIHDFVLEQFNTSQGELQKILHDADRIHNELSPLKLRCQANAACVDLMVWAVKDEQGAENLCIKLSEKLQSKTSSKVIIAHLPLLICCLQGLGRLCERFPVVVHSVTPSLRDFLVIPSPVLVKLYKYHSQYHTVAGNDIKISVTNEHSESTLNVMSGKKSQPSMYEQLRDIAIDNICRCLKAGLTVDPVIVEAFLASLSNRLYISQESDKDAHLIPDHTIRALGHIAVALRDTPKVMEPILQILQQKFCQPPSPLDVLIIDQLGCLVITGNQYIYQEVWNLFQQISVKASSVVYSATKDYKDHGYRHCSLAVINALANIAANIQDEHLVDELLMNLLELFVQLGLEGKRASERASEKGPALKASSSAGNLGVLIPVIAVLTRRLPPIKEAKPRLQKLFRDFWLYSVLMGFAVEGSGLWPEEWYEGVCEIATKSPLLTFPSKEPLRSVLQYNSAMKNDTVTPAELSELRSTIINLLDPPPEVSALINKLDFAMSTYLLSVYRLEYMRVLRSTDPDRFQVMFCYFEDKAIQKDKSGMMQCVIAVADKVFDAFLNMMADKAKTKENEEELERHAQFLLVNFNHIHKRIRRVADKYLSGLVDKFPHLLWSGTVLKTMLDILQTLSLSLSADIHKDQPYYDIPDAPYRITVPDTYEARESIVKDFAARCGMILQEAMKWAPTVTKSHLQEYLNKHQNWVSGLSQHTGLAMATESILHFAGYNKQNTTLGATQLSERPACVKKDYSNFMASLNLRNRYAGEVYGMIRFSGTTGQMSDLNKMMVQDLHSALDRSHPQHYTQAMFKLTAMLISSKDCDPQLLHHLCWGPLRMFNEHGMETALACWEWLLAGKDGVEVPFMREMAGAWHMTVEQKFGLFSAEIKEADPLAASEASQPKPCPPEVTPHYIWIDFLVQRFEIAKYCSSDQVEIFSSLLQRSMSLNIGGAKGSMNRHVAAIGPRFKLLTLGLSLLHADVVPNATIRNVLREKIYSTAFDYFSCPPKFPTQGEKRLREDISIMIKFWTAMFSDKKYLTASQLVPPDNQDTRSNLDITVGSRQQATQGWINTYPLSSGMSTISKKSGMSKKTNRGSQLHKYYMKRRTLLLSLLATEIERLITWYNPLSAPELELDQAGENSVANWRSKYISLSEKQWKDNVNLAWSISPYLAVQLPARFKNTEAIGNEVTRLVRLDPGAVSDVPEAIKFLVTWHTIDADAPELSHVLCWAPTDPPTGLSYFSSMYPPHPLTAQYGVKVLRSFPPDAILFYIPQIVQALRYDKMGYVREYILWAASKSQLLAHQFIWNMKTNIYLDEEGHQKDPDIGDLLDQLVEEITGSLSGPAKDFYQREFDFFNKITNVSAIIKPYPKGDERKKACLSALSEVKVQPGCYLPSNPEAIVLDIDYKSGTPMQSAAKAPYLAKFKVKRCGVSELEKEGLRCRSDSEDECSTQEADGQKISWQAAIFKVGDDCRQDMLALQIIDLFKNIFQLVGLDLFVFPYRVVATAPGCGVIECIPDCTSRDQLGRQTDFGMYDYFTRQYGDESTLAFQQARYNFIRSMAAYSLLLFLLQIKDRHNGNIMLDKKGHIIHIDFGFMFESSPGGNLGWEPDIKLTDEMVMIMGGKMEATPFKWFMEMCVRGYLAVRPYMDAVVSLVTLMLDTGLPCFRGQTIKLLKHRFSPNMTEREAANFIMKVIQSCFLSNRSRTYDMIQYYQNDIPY

## Nc1nc(N2CCN(C(=O)COc3ccc(Cl)cc3)CC2)c2nc(-c3cccnc3)sc2n1 [formula (1), 5-amino-7-[4-(4-chlorophenoxyacetyl)piperazin-1-yl]-2-(pyridin-3-yl)thiazolo[5,4-d]pyrimidine]
LOK; [1]
  inhibition at 10 µM: 100%
LOK; [2]
  IC50: < 10 µM
RIOK2; [1]
  inhibition at 10 µM: 94%
RIOK2; [2]
  IC50: < 10 µM
TESK1; [1]
  inhibition at 10 µM: 51%
TESK1; [2]
  IC50: < 10 µM
PI4KA (PI4K alpha)
  Kinase activity: 99 percentage of control
YSK4; [1]
  inhibition at 10 µM: 79%
YSK4; [2]
  IC50: < 10 µM
